Measured values as given in patent publication US20230303710A1, “METHODS AND COMPOSITIONS FOR INHIBITION OF DIHYDROOROTATE DEHYDROGENASE IN COMBINATION WITH AN ANTI-CD38 THERAPEUTIC AGENT” (OHIO STATE INNOVATION FOUNDATION, priority 2019, published 2023).
pEC50: −log10 of the molar value.

Legend:
[1] = system: a variety of unrelated viruses; conditions: Harvey et al. (2009) Antiviral Res.; read-out: EC50, inhibition of virus replication in vitro; cited from earlier work
[2] = system: MV-411 cells with wild type (WT) p53; assay: CD38 surface expression by flow cytometry in MV-411 cells with wild type p53; format: cell-based; conditions: 1 µM, 72 hours, versus vehicle
Description: (§1) FIGS. 1A-1B show representative data for the effect of a representative DHODH inhibitor on the expression of CD38 in AML cells. Briefly, MV-411 cells with wild type (WT) p53 (FIG. 1A) or mutant p53 (FIG. 1B) were treated with brequinar (BRQ, 1 µM), or Cpd3 (1 µM) for 72 hours, and then the CD38 surface expression was determined by flow cytometry. The CD38 mean fluorescent intensity (MFI) is calculated based on the X-median expression.
(§2) MV-411 cells with wild type (WT) p53 or mutant p53 were treated with brequinar (BRQ, 1 µM), or Cpd3 (1 µM) for 72 hours. CD38 surface expression was determined by flow cytometry. The CD38 mean fluorescent intensity (MFI) is calculated based on the X-median expression. FIG. 1A show data obtained with MV-411 having wild type p53. […] FIG. 1B show the results obtained with MV-411 having a mutant p53.

[3] = system: MV-411 cells with mutant p53; assay: CD38 surface expression by flow cytometry in MV-411 cells with mutant p53; format: cell-based; conditions: 1 µM, 72 hours, versus vehicle
Description: as §1, §2

MV4-11 cells = assay: MV4-11 xenograft (secondary engraftment) survival study in NSG mice; format: in vivo; conditions: Cpd3 50 mg/kg PO MWF, daratumumab 1 µg/g IP TF
Description: FIGS. 2A-2D show representative data for the effect of a representative DHODH inhibitor in combination with an anti-CD38 antibody in a mouse xenograft model. FIG. 2A show representative data for percent survival versus time post-engraftment. Briefly, NSG mice were injected with 0.3 × 10^6 spleen cells from an MV4-11 engrafted leukemic donor mouse (N=7 per group). Starting at day 7 post-engraftment, mice were treated with vehicle; 50 mg/kg Cpd3 (PO; indicated as “Cpd3 PO” in the figure) on a dosing schedule of Monday/Wednesday/Friday (MWF); 1 µg/g daratumumab (IP; indicated as “Dara IP” in the figure) on a dosing schedule of Tuesday and Friday (TF); or Cpd3 and daratumumab combination (indicated as “Cpd3+Dara” in the figure). The Cpd3 and daratumumab combination treatment comprised dosing with 50 mg/kg Cpd3 on a dosing scheduled of Monday/Wednesday/Friday and dosing with 1 µg/g daratumumab on a dosing schedule of Tuesday and Friday (TF). Mice were monitored until reaching early/end removal criteria (ERC) and overall survival was calculated using Kapler Meyer analysis. The arrow indicates start of treatment. […] The treatment type is indicated below each photographic image as outlined for FIG. 2A. […] Weight loss is typically associated with leukemia progression and has also been associated with DHODH inhibitor treatment. […] Briefly, Spleens were isolated from the animals from each treatment group as they reached ERC. The percentage of human CD45+ cells in the spleen were determined by flow cytometry.
Xenograft Model Methodology. Animal studies were approved by the Institutional Laboratory Animal Care and Use Committee (IACUC) at the Ohio State University. 1E7 M4-11 cells were engrafted intravenously into NSG mice (males, 12-week old, strain NOD.Cg-Prkdcscid ll2rgtm1Wjl/SzJ). These mice were allowed to develop a fatal leukemia, at which point splenocytes containing leukemia cells were collected and cryopreserved. […] Overall survival was calculated using Kapler Meyer analysis. […]

MOLM-13 cells = assay: MOLM-13 xenograft survival study in NCG mice; format: in vivo; conditions: Cpd4 10 mg/kg PO TIWK (MWF); Daratumumab 1 µg/g IP TF; Isatuximab 2.5 mg/kg IP TF; start 4 days post engraftment; vehicle 16.5
Description: Xenograft Model Methodology. Animal studies were performed at Charles River Laboratories (CRL). 1E5 MOLM-13 cells were engrafted intravenously into NCG mice (males, 8-12-week old). 4 days post engraftment, mice were randomly enrolled to receive: • 1. Vehicle • 2. 10 mg/kg Cpd 53 orally (daily) • 3. 10 mg/kg Cpd 53 orally (TIWK, Monday, Wednesday, and Friday) • 4. 4 mg/kg BAY2402234 orally (daily) • 5. 1 µg/g Daratumumab via intraperitoneal injection (BIWK, Tuesday and Friday) • 6. 2.5 µg/g Isatuximab via intraperitoneal injection (BIWK, Tuesday and Friday) • 7. Cpd4 (daily) and Daratumumab (BIWK) combination • 8. Cpd4 (TIWK) and Daratumumab (BIWK) combination • 9. BAY2402234 (daily) and Daratumumab (BIWK) combination • 10. Cpd4 (daily) and Isatuximab (BIWK) combination • 11. […]
Procedures used in the study are as follows: • Mice with 1×10^5 MOLM-13 tumor cells in 0% Matrigel iv tail vein. • Study start is 4 days post implant • Animals were randomized into treatment groups based on Day 1 bodyweight. • Cell Injection Volume was 0.2 mL/mouse. • Age at Start Date: 8 to 12 weeks. • Body Weight: qd x 5 then biwk to end • Any individual animal with a single observation of > than 30% body weight loss or three consecutive measurements of >25% body weight loss was euthanized. • Any group with a mean body weight loss of >20 % or >10% mortality ceased dosing. […] Animals were to be monitored individually. […]

For `O=C(N[C@@H]1CCCc2c1[nH]c1ccc(Cl)cc21)c1ccccn1` [GSK983], the pEC50 [1] is listed as 7.70 to 8.30.

In the case of `CCOc1ccc(-c2ccc(-c3cc(C(=O)O)c4cc(F)ccc4n3)cc2)cc1` [Cpd3, 2-(4′-ethoxy-[1,1′-biphenyl]-4-yl)-6-fluoroquinoline-4-carboxylic acid], the “CD38 surface expression (mean fluorescent intensity)” value (shortened to “CD38 surface expression”) [2] was “upregulated”, the “CD38 surface expression” value [3] was “highly upregulated” and the “survival compared to the vehicle treatment control group / other treatment groups” value (MV4-11 cells; FIG. 2A) was “modest improvement in survival”. For the same molecule, the “Estimated median survival time (days PE)” value (MV4-11 cells; start day 7 post-engraftment, vehicle 35 days) was 42 days and the N died (MV4-11 cells; N=7 per group, start day 7 post-engraftment) was 7.

For `CCCCOc1cccc(-c2ccc(-c3cc(C(=O)O)c4cc(F)ccc4n3)cc2)c1` [Cpd4, 2-(3′-butoxy-[1,1′-biphenyl]-4-yl)-6-fluoroquinoline-4-carboxylic acid], the “Median survival” value (MOLM-13 cells) was 43 days.

In the case of `Cc1c(-c2ccc(-c3ccccc3F)cc2)nc2ccc(F)cc2c1C(=O)O` [brequinar, reference compound], the “CD38 surface expression” value [2] was “upregulated” and the “CD38 surface expression” value [3] was “highly upregulated”.
